Several values for one entry are separate records, joined by “and”; a condition that tells them apart may be missing. Equal entries are not always repeated. Toxic doses and inconclusive results are not listed. Rule for the calls: active = survival T/C of 150% or more; inactive = T/C below 125% in these data.
Test system: P388 leukemia ip, CD2F1 mice, survival T/C
Test: NCI In Vivo Anticancer Drug Screen. Data for tumor model P388 Leukemia (intraperitoneal) in CD2F1 (CDF1) mice
Conditions: endpoint: median survival time, higher = longer survival
How it was run: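 Mice carrying the transplanted tumor received test compound or vehicle. Survival was recorded in each group, and the value is the treated-group measurement divided by that of the vehicle-treated control group.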

[1] = dose: 25.0 mg/kg/injection, schedule: Q01DX009 (ip), vehicle: saline with Tween-80
[2] = dose: 50.0 mg/kg/injection, schedule: Q01DX009 (ip), vehicle: saline with Tween-80
[3] = dose: 100.0 mg/kg/injection, schedule: Q01DX009 (ip), vehicle: saline with Tween-80

Measured: T/C

COc1ccc(/C=C/c2ccnc3ccccc23)cc1
inactive: dose: 6.25 mg/kg/injection, schedule: Q01DX009 (ip), vehicle: saline with Tween-80 100 % of control | dose: 12.5 mg/kg/injection, schedule: Q01DX009 (ip), vehicle: saline with Tween-80 104 % of control | [1] 108 % of control

O=C1C=CC(=O)N1c1ccc(-c2nc3ccccc3o2)cc1
inactive: dose: 6.25 mg/kg/injection, schedule: Q01DX005 (ip), vehicle: saline with Tween-80 109 % of control | dose: 12.5 mg/kg/injection, schedule: Q01DX005 (ip), vehicle: saline with Tween-80 109 % of control | dose: 25.0 mg/kg/injection, schedule: Q01DX005 (ip), vehicle: saline with Tween-80 109 % of control and 111 % of control | dose: 50.0 mg/kg/injection, schedule: Q01DX005 (ip), vehicle: saline with Tween-80 111 % of control

CC(=O)OC(CCCCCCCCCCCCC(C)C)CC(=O)O (centres undefined)
inactive: dose: 8.13 mg/kg/injection, schedule: Q01DX005 (ip), vehicle: Klucel + Tween-80 102 % of control | dose: 16.25 mg/kg/injection, schedule: Q01DX005 (ip), vehicle: Klucel + Tween-80 98 % of control | dose: 32.5 mg/kg/injection, schedule: Q01DX005 (ip), vehicle: Klucel + Tween-80 90 % of control | dose: 65.0 mg/kg/injection, schedule: Q01DX005 (ip), vehicle: Klucel + Tween-80 90 % of control

CC(=O)NCCc1nc(-c2nc(C(=O)O)cs2)cs1
inactive: dose: 12.5 mg/kg/injection, schedule: Q01DX009 (ip), vehicle: distilled water + Tween-80 102 % of control | dose: 25.0 mg/kg/injection, schedule: Q01DX009 (ip), vehicle: distilled water + Tween-80 100 % of control | dose: 50.0 mg/kg/injection, schedule: Q01DX009 (ip), vehicle: distilled water + Tween-80 102 % of control | dose: 100.0 mg/kg/injection, schedule: Q01DX009 (ip), vehicle: distilled water + Tween-80 100 % of control

C=C1C(NC)CCC23CC24CCC2(C)C(C(C)=O)C(O)CC2(C)C4CCC13 (centres undefined)
inactive: [2] 92 % of control | [3] 96 % of control

CC(C)(C)N(OC(=O)c1ccc([N+](=O)[O-])cc1)c1ccccc1
inactive: [1] 98 % of control | [2] 97 % of control | [3] 95 % of control

O=C1c2ccc(Cl)cc2OCCC1CN1CCCCC1 (centres undefined)
inactive: dose: 100.0 mg/kg/injection, schedule: Q04DX003 (ip), vehicle: saline 100 % of control | dose: 200.0 mg/kg/injection, schedule: Q04DX003 (ip), vehicle: saline 103 % of control

CCOC(=O)c1ccc2c(c1)CCC2
inactive: dose: 50.0 mg/kg/injection, schedule: Q01DX009 (ip), vehicle: acetone 104 % of control | dose: 100.0 mg/kg/injection, schedule: Q01DX009 (ip), vehicle: acetone 104 % of control

COC12CC(=O)C(C(C)=O)=C(O)C1(C)c1c(O)c(C)c(O)c(C(C)=O)c1O2 (centres undefined)
inactive: dose: 6.25 mg/kg/injection, schedule: Q01DX009 (ip), vehicle: gum acacia 105 % of control and 108 % of control | dose: 12.5 mg/kg/injection, schedule: Q01DX009 (ip), vehicle: gum acacia 109 % of control and 111 % of control | dose: 25.0 mg/kg/injection, schedule: Q01DX009 (ip), vehicle: gum acacia 111 % of control and 115 % of control | dose: 50.0 mg/kg/injection, schedule: Q01DX009 (ip), vehicle: gum acacia 107 % of control and 113 % of control

O=S1(=O)C=C(Cl)C2C3CC(C(Cl)C3Cl)C21 (centres undefined)
inactive: dose: 15.0 mg/kg/injection, schedule: Q04DX003 (ip), vehicle: saline 100 % of control | dose: 30.0 mg/kg/injection, schedule: Q04DX003 (ip), vehicle: saline 91 % of control

CC1=C2CCC3(C)C(=C2OC1=O)C(C)=C(Cl)C(Br)C3Br (centres undefined)
inactive: dose: 50.0 mg/kg/injection, schedule: Q01DX005 (ip), vehicle: Klucel (hydroxypropylcellulose) (HPC) 102 % of control | dose: 100.0 mg/kg/injection, schedule: Q01DX005 (ip), vehicle: Klucel (hydroxypropylcellulose) (HPC) 111 % of control | dose: 200.0 mg/kg/injection, schedule: Q01DX005 (ip), vehicle: Klucel (hydroxypropylcellulose) (HPC) 118 % of control

COC(=O)Nc1cnc(C=O)c(C)c1-c1ccc(OC)c(OC)c1OCc1ccccc1
inactive: dose: 12.5 mg/kg/injection, schedule: Q01DX009 (ip), vehicle: other 111 % of control | dose: 25.0 mg/kg/injection, schedule: Q01DX009 (ip), vehicle: other 119 % of control | dose: 50.0 mg/kg/injection, schedule: Q01DX009 (ip), vehicle: other 110 % of control | dose: 100.0 mg/kg/injection, schedule: Q01DX009 (ip), vehicle: other 103 % of control | dose: 200.0 mg/kg/injection, schedule: Q01DX009 (ip), vehicle: other 117 % of control | dose: 400.0 mg/kg/injection, schedule: Q01DX009 (ip), vehicle: other 90 % of control

Source: PubChem BioAssay AID330 (DTP/NCI, 2004)
